Reference: the Bradley open melting point set (2014)
Values joined by “and” are separate entries in the source; they are usually repeats but may differ in a detail not shown here. Equal values may be shown once.

Row | SMILES | melting point
1 | Oc1c(Cl)c(Cl)c(Cl)c(Cl)c1Cl [Pentachlorophenol] | 190 °C
2 | CC(C)C(=O)C(C)C [diisopropyl ketone] | -69 °C
3 | COc1cc(/C=C/C(=O)O)cc(OC)c1O [sinapic acid] | 195 °C
4 | CCC1CO1 (stereo unspecified) [2-Ethyloxirane] | -60 °C
5 | Cc1ccnc(NS(=O)(=O)c2ccc(N)cc2)n1 [sulfamerazine] | 236 °C
6 | OO [Hydrogen peroxide] | -40 °C
7 | O=C(Cl)c1cccc2ccccc12 [1-naphthoyl chloride] | 18 °C
8 | O=C(O)Cc1ccccc1Nc1c(Cl)cccc1Cl [diclofenac] | 157 °C
9 | OC1CCOc2ccccc21 (stereo unspecified) [4-chromanol] | 40 °C
10 | OB(O)c1ccoc1 [furan-3-boronic acid] | 142 °C
11 | Fc1cc(I)ccc1Br [1-bromo-2-fluoro-4-iodobenzene] | 36 °C
12 | c1ccc(P(C2CCCCC2)C2CCCCC2)cc1 [dicyclohexylphenylphosphine] | 60 °C
13 | Oc1ccc2cc(O)ccc2c1 [2,6-dihydroxynaphthalene] | 224 °C
14 | Cc1ccccc1CO [2-methylbenzyl_alcohol] | 39 °C
15 | Cc1cc(I)cc(C)c1O [2,6-dimethyl-4-iodophenol] | 97 °C
16 | O=C(c1ccccc1)N(O)c1ccccc1 [N-Hydroxy-N-phenylbenzamide] | 119 °C
17 | CCc1cc(C(N)=S)ccn1 [Ethionamide] | 163 °C
18 | O=C=Nc1ccc([N+](=O)[O-])cc1 [4-nitrophenyl isocyanate] | 58 °C
19 | Cc1ccc(O)c(Br)c1 [2-bromo-4-methylphenol] | 16 °C
20 | CCCCCCCCCCS(=O)(=O)Cl [1-decanesulfonyl chloride] | 32 °C
21 | Cc1cc(N)nc(C)n1 [4-amino-2,6-dimethylpyrimidine] | 185 °C
22 | CC(C)(C)OC(=O)N[C@@H](Cc1cccs1)C(=O)O [N-boc-3-(2-thienyl)-L-alanine] | 74 °C
23 | NCCCCCC(=O)O [Aminocaproic Acid] | 205 °C
24 | O=S(=O)(Nc1ccccc1Cl)c1ccccc1 [2-chloro-1-phenylsulfonamidobenzene] | 125 °C
25 | CCCCBr [1-bromobutane] | -112 °C
26 | CC1=C(/C=C/C(C)=C/C=C/C(C)=C/C=C/C=C(C)/C=C/C=C(C)/C=C/C2=C(C)CCCC2(C)C)C(C)(C)CCC1 [beta-carotene] | 180 °C

Row | SMILES | melting point
27 | C#CC(C)(C)C [3,3-Dimethylbut-1-yne] | -78 °C
28 | CC12CCC3C(CCC4CC(OCc5ccccc5)CCC43C)C1CCC2=O (stereo unspecified) [3-(benzyloxy)androstan-17-one] | 220 °C
29 | CCC1(c2ccccc2)C(=O)NCNC1=O [Primidone] | 282 °C
30 | CC(=O)NCO [N-(hydroxymethyl)acetamide] | 50 °C
31 | C=CCCCCCCCCCCC [1-tridecene] | -23 °C
32 | O=[N+]([O-])c1c(Cl)c(Cl)cc(Cl)c1Cl [2,3,5,6-tetrachloro-nitrobenzene] | 99.5 °C
33 | NCCN [ethylenediamine] | 10 °C
34 | CC(=O)Nc1ccc(Cl)cc1 [4'-chloroacetanilide] | 179 °C
35 | Cc1cc(O)ccc1O [2-Methylbenzene-1,4-diol] | 129 °C
36 | CC(=O)Nc1ccccc1C#Cc1ccccc1 [N-[2-(phenylethynyl)phenyl]acetamide] | 119 °C
37 | Oc1ccc(OCc2ccccc2)nc1 [2-benzyloxy-5-hydroxypyridine] | 92 °C
38 | S=C=NC(c1ccccc1)(c1ccccc1)c1ccccc1 [triphenylmethyl isothiocyanate] | 135 °C
39 | N#Cc1c(Cl)cccc1Cl [2,6-dichlorobenzonitrile] | 145 °C
40 | O=Cc1ccc(Br)cc1 [4-bromobenzaldehyde] | 57 °C
41 | CC(C)NCC(O)c1cc(O)cc(O)c1 (stereo unspecified) [metaproterenol] | 100 °C
42 | Cn1c(=O)c2c(ncn2CC2OCCO2)n(C)c1=O [doxofylline] | 144 °C
43 | CC1(C)C(=O)[C@@]2(C)CC[C@@H]1C2 [fenchone] | 6 °C
44 | CC(CP(=O)(O)O)P(=O)(O)O (stereo unspecified) [propylenediphosphonic acid] | 178 °C
45 | O=C(O)c1cccc([N+](=O)[O-])c1Cl [2-chloro-3-nitrobenzoic acid] | 184 °C
46 | C[C@@H](O)[C@H](O)[C@H](O)[C@@H](O)C=O [D-fucose] | 145 °C
47 | Clc1cc(Cl)cc(Br)c1 [1-bromo-3,5-dichlorobenzene] | 75 °C
48 | Cc1c2ccccc2cc2ccccc12 [9-Methylanthracene] | 78 °C
49 | Nc1nc2c(ncn2[C@@H]2O[C@@H](CO)[C@H](O)[C@H]2O)c(=O)[nH]1 [Guanosine] | 239 °C
50 | CC(C)(N)CO [2-amino-2-methyl-1-propanol] | 26 °C
51 | COC(=O)c1ccc(F)cc1O [methyl 4-fluorosalicylate] | 39 °C
52 | Nc1cccc(O)c1 [m-aminophenol] | 125 °C

Row | SMILES | melting point
53 | OB(O)C1CC1 [cyclopropylboronic acid] | 93 °C
54 | NC(=O)N1c2ccccc2C=Cc2ccccc21 [carbamazepine] | 190 °C
55 | Nc1ccc2ncccc2c1 [6-aminoquinoline] | 117 °C
56 | COc1cccc(C(=O)O)c1 [3-Methoxybenzoic acid] | 106 °C
57 | ClC=C(Cl)Cl [trichloroethylene] | -85 °C
58 | O=C(CBr)c1ccc(Br)cc1 [2,4'-dibromoacetophenone] | 110 °C
59 | Oc1ccc(-n2ccnc2)cc1 [4-(1-imidazolyl)phenol] | 206 °C
60 | CCC1(c2ccccc2)C(=O)NC(=O)NC1=O [Phenobarbital] | 174 °C
61 | N#Cc1ccccc1Br [2-bromobenzonitrile] | 55 °C
62 | NC(=O)c1cccnc1 [nicotinamide] | 130 °C
63 | CC(=O)C(=O)O [Pyruvic acid] | 11.8 °C
64 | NC(=O)N1c2ccccc2C=Cc2ccccc21 [carbazepine] | 190 °C and 192 °C (2×)
65 | OB(O)c1cccc(OCc2ccccc2)c1 [3-benzyloxybenzeneboronic acid] | 123 °C
66 | CC1c2ccccc2C(=O)C1c1ccccc1 (stereo unspecified) [3-methyl-2-phenyl-2,3-dihydro-1H-inden-1-one] | 85 °C
67 | CC(=O)N[C@@H](Cc1ccccc1)C(=O)O [N-acetyl-l-phenylalanine] | 168 °C
68 | O=S(=O)(Cl)c1ccc2c(c1)OCCO2 [1,4-benzodioxane-6-sulfonyl chloride] | 66 °C
69 | N#Cc1ccc(O)c([N+](=O)[O-])c1 [4-Hydroxy-3-nitrobenzonitrile] | 141 °C
70 | O=C(O)c1ccc(C(=O)c2ccccc2)cc1 [4-benzoylbenzoic acid] | 199 °C
71 | O=C(O)CCCc1ccc(F)cc1 [4-(4-fluorophenyl)butyric acid] | 45 °C
72 | Cn1nnnc1S [5-mercapto-1-methyltetrazole] | 127 °C
73 | COCOC [dimethoxymethane] | -105 °C
74 | Cc1ccc(C(=O)O)cc1F [3-fluoro-4-methylbenzoic acid] | 170 °C
75 | O=C(O)c1cc(=O)[nH]c(=O)[nH]1 [orotic acid, anhydrous] | 346 °C
76 | CN(C)CCOc1ccc(/C(=C(/CCCl)c2ccccc2)c2ccccc2)cc1 [Toremifene] | 109 °C
77 | OB(O)c1cc(Cl)cc(Cl)c1Cl [2,3,5-trichlorobenzeneboronic acid] | 245 °C
78 | c1ccc(COCc2ccccc2)cc1 [dibenzyl ether] | 4 °C

Row | SMILES | melting point
79 | O=[N+]([O-])c1c(Cl)c(Cl)cc(Cl)c1Cl [2,3,5,6-tetrachloronitrobenzene] | 100 °C
80 | C[C@H](Cc1ccc(O)c(O)c1)[C@@H](C)Cc1ccc(O)c(O)c1 [nordihydroguaiaretic acid] | 186 °C
81 | Nc1cccc2ccc(O)cc12 [8-amino-2-naphthol] | 208 °C
82 | Cc1cc(O)c(C)c(=O)o1 [3,6-dimethyl-4-hydroxy-2-pyrone] | 210 °C
83 | CC(=O)c1ccccn1 [2-acetylpyridine] | 9 °C
84 | CC(=O)CC(=O)OC(C)C [isopropyl acetoacetate] | -27 °C
85 | C(#Cc1ccccc1)c1ccccc1 [1,1'-Ethyne-1,2-diyldibenzene] | 60 °C
86 | O=C1c2ccccc2CC1Br (stereo unspecified) [2-bromo-1-indanone] | 38 °C
87 | Oc1ccc2ccccc2c1N=Nc1nccs1 [1-(2-thiazolylazo)-2-naphthol] | 139 °C
88 | O=S(=O)(Cc1ccccc1)c1ccccc1 [benzyl phenyl sulfone] | 149 °C
89 | O=C1c2ccccc2-c2cccc3cccc1c23 [7h-benz[de]anthracen-7-one] | 173 °C
90 | CC(=O)OC1CCC2(C)C3CCC4=C(CCC4(C)C#CCl)C3CCC2(C)C1 (stereo unspecified) [17-(chloroethynyl)-5,10,17-trimethylgon-13-en-3-yl acetate] | 110 °C
91 | OC1[C@H]2CC[C@@H]1[C@H]1C=C[C@@H]2O1 (stereo partly drawn) [(1R,2S,5R,6S)-9-oxatricyclo[4.2.1.1~2,5~]dec-7-en-10-ol] | 122 °C
92 | CCN(CC)CC [N,N-Diethylethanamine] | -115 °C
93 | Cc1cccc(-c2nc(-c3ccccc3)cs2)c1 [4-phenyl-2-(m-tolyl)thiazole] | 48 °C
94 | CN1C(C(=O)Nc2ccccn2)=C(O)c2ccccc2S1(=O)=O [piroxicam] | 200 °C and 199 °C
95 | CC(=O)N1CCN(c2ccc(OC[C@@H]3CO[C@@](Cn4ccnc4)(c4ccc(Cl)cc4Cl)O3)cc2)CC1 [Ketoconazole] | 146 °C
96 | C1CCC2=NCCCN2CC1 [1,8-diazabicyclo[5.4.0]undec-7-ene] | -70 °C
97 | C=C1N(C)c2ccccc2C1(C)C [1,3,3-trimethyl-2-methyleneindoline] | -10 °C
98 | Clc1nc[nH]c1Cl [4,5-dichloroimidazole] | 181 °C
99 | OB(O)c1ccc(C2CCCCC2)cc1 [4-cyclohexylbenzeneboronic acid] | 220 °C
100 | CCCCOC(=O)c1ccc(O)cc1 [butyl p-hydroxybenzoate] | 69 °C
101 | c1ccc(/N=N/c2ccccc2)cc1 [(E)-Diphenyldiazene] | 68.5 °C
